Common to all, as to assay type: cell-based, Sprague-Dawley rat
Assay [1] deals with hippocampal slice. The assay can be described thus: Effect of bath-applied drugs on carbachol-induced beta waves in hippocampal slices on a 64-electrode MED array, FFT analysis. The following applies: for power within the 20 Hz band / shift in the peak: 10 μM Ampakine after carbachol. The text has this: (§1) The general procedures for the preparation of the Multi-Electrode Dish (Matsushita Electric Industrial Co. Ltd., Osaka, Japan: “the MED probe”) were described above. Procedures for the MED probe preparation are also described by Oka et al. […]. The device has an array of 64 planar microelectrodes, each having a size of 50×50 μm, arranged in an 8 by 8 pattern. Probes come with two types of interpolar distance, 150 μm (Panasonic: MED-P515AP) and 450 μm (Panasonic: MED-P545AP).
(§2) To provide sufficient adhesion of the neuronal sample slice to the MED surface, the surface of the MED probe was treated with 0.1% polyethylenimine (Sigma: P-3143) in 25 mM borate buffer, pH 8.4, for 8 hours at room temperature. The probe surface was rinsed 3 times with sterile distilled water. The probe (chamber) was then filled with DMEM/F-12 mixed medium, containing 10% fetal bovine serum (GIBCO: 16141-079) and 10% horse serum (GIBCO: 16050-122), for at least 1 hour at 37° C. DMEM/F-12 mixed medium is a 1:1 mixture of Dulbecco's Modified Eagle's Medium and Ham's F-12 (GIBCO: D/F-12 medium, 12400-024), supplemented with N2 supplement (GIBCO: 17502-014) and hydrocortisone (20 nM, Sigma, H0888).
(§3) A 17-24 day old Sprague-Dawley rat was sacrificed by decapitation after anesthesia using halothane (2-Bromo-2 chloro-1,1,1 -trifluoroethane, Sigma: B4388), and the whole brain was removed carefully. The brain was immediately soaked in ice-cold, oxygenated preparation buffer of the following composition (in mM): 124 NaCl, 26 NaHCO3, 10 glucose, 3 KCl, 1.25 NaH2PO4, 2 CaCl2, 2 MgSO4, for approximately 2 minutes. Appropriate portions of the brain were trimmed and placed on the ice-cold stage of a vibrating tissue slicer (Leica: VT-1000S). The stage was immediately filled with both oxygenated and frozen preparation buffers. The thickness of each tissue slice was 350 μm. Each slice was gently taken off the blade by a painting brush, trimmed, and immediately soaked in the oxygenated preparation buffer for 1 hour at room temperature. Then a slice was placed on the center of the MED probe. The slice was positioned to cover the 8×8 array. After positioning the slice, the MED probe was immediately placed in a box filled with 95% O^2 and 5% CO^2 and allowed to recover at 32° C. for 1 hour.
(§4) During electrophysiological recording, the slices on the MED probe were placed in a small CO2 incubator (Asahi Lifescience: model 4020) at 32° C. After recovery of the slice on the MED probe, the medium was replaced with DMEM/F-12 mixed medium without serum. The slices were on the interface, and contacted with a moisturized 95% O2 and 5% CO2 gas mixture. In this condition, the responses were recorded for more than 2 hours.
(§5) Drugs were purchased from RBI (diazepam, bicuculline, CNQX, 2-hydroxysaclofen) or Sigma (all other compounds). CX614 and CX691 were produced by Cortex Pharmaceuticals Inc. (Irvine, Calif.). All drugs were bath applied at known concentrations and were prepared daily from frozen aliquots.
(§6) Spontaneous and evoked field potentials at all 64 sites were recorded simultaneously with the multi-channel recording system (Matsushita Electric Industrial Co. Ltd, the “MED64 system”) at a 20 kHz sampling rate. In the case of the evoked response, one of the planar microelectrodes out of the 64 available was used for cathode of stimulating. Bipolar constant current pulses (10 to 50 μA, 0.1 msec) were produced by the data acquisition software through the isolator. The stimulating microelectrode was selected by the 64 switch-box. The measured field potentials were then subjected to analysis using the CSD analysis (Nicholson et al) discussed below.

The test system of assay [2] is hippocampal slice. The assay can be described thus: Carbachol induction of rhythmic activity in hippocampus (fields CA1 and CA3), MED array, FFT analysis. The following applies: for group mean dominant CA1 frequency / group mean dominant CA3 frequency: mean ± s.d.
From the text: as §1, §2, §3, §4, §5, §6

For another assay, the system named is entorhinal cortex. The assay can be described thus: Carbachol-induced 40 Hz rhythm in retrohippocampal cortex, MED broad array. On the procedure: as §3, with “Then a slice was placed on the center of the MED probe. The slice was positioned to cover the 8×8 array. After positioning the slice, the MED probe was immediately placed in a box filled with 95% O^2 and 5% CO^2 and allowed to recover at 32° C. for 1 hour.” left out
During electrophysiological recording, the slices on the MED probe were placed in a small CO2 incubator (Asahi Lifescience: model 4020) at 32° C. […] In this condition, the responses were recorded for more than 2 hours.
Spontaneous and evoked field potentials at all 64 sites were recorded simultaneously with the multi-channel recording system (Matsushita Electric Industrial Co. Ltd, the “MED64 system”) at a 20 kHz sampling rate. […] The measured field potentials were then subjected to analysis using the CSD analysis (Nicholson et al) discussed below. […]

The mark [3] stands for this setting: diazepam plus carbachol, FIG. 13C.

This is an account of results in patent publication US6511817B1, “Methods and device for in vitro detection and characterization of psychoactives using analysis of repetitive electrical activity in a neuronal sample” (Matsushita Electric Industrial Co., Ltd., priority 1999, dated 2003).

“Also recorded” adds a separate entry of the source.

Take `N#Cc1cc2[nH]c(=O)c(=O)[nH]c2cc1[N+](=O)[O-]` [CNQX]: in the assay with hippocampal slice [1] (20 μM), the “amplitude of carbachol-induced waves” value is on record as “significantly diminished and/or eliminated”, the “effect on carbachol-induced high frequency rhythms” value is recorded as “greatly reduced”, the “power of carbachol-induced waves” value is recorded as “significant decrease” and the “synchronized activity in carbachol-treated sample” value (“synchronized activity” for short) was “very rapid loss”.

As for `O=C(c1ccc2nonc2c1)N1CCCCC1` [CX691], in the assay with hippocampal slice [1], the “power within the 20 Hz band” value is recorded as “significant increase” and the “shift in the peak” value is given as 10 Hz.

As to `CN1C(=O)CN=C(c2ccccc2)c2cc(Cl)ccc21` [diazepam], in the assay with hippocampal slice [1] (3 μM diazepam, 20 μM carbachol), the “amplitude of beta oscillations” value is given as “markedly enhanced” and the “change in the frequency of the waves” value was “not accompanied by a significant change; also recorded: without much shift”. Moreover, in the assay with hippocampal slice [1] (setting [3]), the “increase in power within the 20 Hz band over carbachol alone” value is reported as “nearly threefold increase” and the “peak added at a higher (gamma) frequency” value is reported as “approximately 40 Hz”.

For the compound picrotoxin, in the assay with hippocampal slice [1] (50 μM picrotoxin), the “effect on carbachol-induced beta waves” value is reported as “marked reduction”.

With `CN1[C@@H]2CC[C@H]1C[C@@H](OC(=O)C(CO)c1ccccc1)C2` (some centres unmarked) [atropine], the “effect on carbachol-induced high frequency rhythms” value in the assay on hippocampal slice [1] (20 μM) is reported as “completely eliminated”.

In the case of `C[N+](C)(C)CCOC(N)=O` [carbachol, carbyl choline chloride], the “slices with rhythmic activity in CA1 and CA3 close to or within the beta band (10-30 Hz)” value in the assay on hippocampal slice [2] (after infusion of carbachol) was 41 of 55. Moreover, the “group mean dominant CA1 frequency” value in the assay with hippocampal slice [2] (all slices) was 18.8±5.7 Hz; in the assay on hippocampal slice [2] (beta instances alone), 19.2±4.8 Hz. Also, the “group mean dominant CA3 frequency” value in the assay on hippocampal slice [2] (all slices) is on record as 16.4±5.7 Hz; in the assay with hippocampal slice [2] (beta instances alone), 17.3±4.2 Hz. Further, in the assay on hippocampal slice [2] (carbachol 50 μM), the “peak of rhythmic activity in apical dendrites of hippocampal pyramidal cell fields” value is reported as approximately 20 Hz. For the same compound, the “peak of the power spectrum” value with hippocampal slice [2] (example slice of FIG. 6B) is reported as 20 Hz. Also, the “frequency of oscillations in deep layers of the medial entorhinal cortex” value in the assay on entorhinal cortex (carbachol 50 μM) is 40 Hz. Besides, in the assay with entorhinal cortex (slices with appropriately positioned electrodes), the “slices with forty Hz activity in the deep layers of the entorhinal cortex” value is recorded as “each of the 15 slices”.

Take `NS(=O)(=O)c1cccc2c1c([N+](=O)[O-])cc1nc(O)c(O)nc12` [NBQX]: in the assay on hippocampal slice [1] (10 μM), the “amplitude of carbachol-induced waves” value is listed as “significantly diminished and/or eliminated”, the “power of carbachol-induced waves” value is “significant decrease” and the “synchronized activity” value is recorded as “very rapid loss”.

Regarding `O=C1c2cc3c(cc2OC2CCCN12)OCCO3` (centres unmarked) [CX614], in the assay with hippocampal slice [1], the “power within the 20 Hz band” value is reported as “significant increase” and the “shift in the peak” value is 10 Hz.

`O=[N+]([O-])c1cc2nc(O)c(O)nc2cc1[N+](=O)[O-]` [DNQX]: in the assay with hippocampal slice [1] (20 μM), the “amplitude of carbachol-induced waves” value is listed as “significantly diminished and/or eliminated”, the “power of carbachol-induced waves” value is listed as “significant decrease” and the “synchronized activity” value was “very rapid loss”.
